Experimental data as given in paper PMC8585049, “Z-DNA as a Tool for Nuclease-Free DNA Methyltransferase Assay” (International Journal of Molecular Sciences, 2021).
Entries after “also recorded” stand apart in the source; their conditions may differ. Where two headings read alike, the source gives them in different places.

How the values were obtained:
[1] = target: T1, M.SssI (Spiroplasma monobiae, UniProt P15840); experiment: smFRET B-Z transition-based DNA methylation (DMT inhibition) assay with M.SssI, UM core substrate; type: biochemical
T1 construct: purchased NEB (New England Biolabs, Inc., Ipswich, MA, USA)
T1 sequence (P15840 whole entry): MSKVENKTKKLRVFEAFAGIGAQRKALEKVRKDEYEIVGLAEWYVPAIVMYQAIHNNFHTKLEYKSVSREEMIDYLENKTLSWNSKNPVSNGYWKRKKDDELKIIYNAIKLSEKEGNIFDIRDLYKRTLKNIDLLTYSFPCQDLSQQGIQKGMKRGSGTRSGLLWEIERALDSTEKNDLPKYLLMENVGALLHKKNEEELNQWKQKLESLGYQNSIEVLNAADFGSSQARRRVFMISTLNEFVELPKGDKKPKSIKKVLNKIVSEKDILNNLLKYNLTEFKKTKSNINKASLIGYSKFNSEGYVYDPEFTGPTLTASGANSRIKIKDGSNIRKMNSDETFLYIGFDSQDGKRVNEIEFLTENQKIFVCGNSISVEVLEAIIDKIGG
Description: (§1) Here we define the degree of inhibition as: DOI=P(Z;DMT)−P(Z;DMT+drug)/P(Z;DMT)−P(Z;0) where P(Z;0) is the population of Z-DNA without any treatment (neither DMT nor inhibitor drug), P(Z;DMT) the Z-DNA population after incubation with DMT, and P(Z;DMT+drug) the Z-DNA population after incubation with DMT together with an inhibitor drug. […] On the opposite limit, the inhibition would be complete (DOI = 1) if P(Z;DMT+drug) completely reduces to the level of P(Z;0) . We employed the UM and HM molecules as substrates for M.SssI and DNMT1, respectively. We used 50 mM Mg^2+ and applied 80 U/mL M.SssI or 100 U/mL DNMT1. […] To check this possibility, we reduced SAM to 10 μM and repeated the inhibitor assay.
(§2) DMTs can change cytosine to methylcytosine by converting SAM to SAH (S-adenosyl homocysteine). In the inhibitor-free assay, we added reagents to water (or 0, 1.75, and 2.5% DMSO in water in control reactions for inhibitor assays) in the following order: SAM, 10× buffer, DNA, and M.SssI or DNMT1. In the DNMT1 assay, the reaction mixture of 20 μL contained 25 nM DNA duplex and 20~400 U/mL (in the inhibitor-free assays) or 100 U/mL (in the inhibitor assays) DNMT1 in the reaction buffer (160 μM SAM and 100 μg/mL BSA in 1× DNMT1 buffer (200 mM NaCl, 50 mM Tris-HCl, 1 mM EDTA, 1 mM DTT, 50% glycerol, pH 7.5)). In the M.SssI assay, the reaction mixture of 20 μL contained 25 nM DNA duplex and 10~200 U/mL (in the inhibitor-free assays) or 80 U/mL (in the inhibitor assays) M.SssI in the reaction buffer (160 μM SAM in 1× NEB buffer 2 (50 mM NaCl, 10 mM Tris-HCl, 10 mM MgCl2, 1 mM DTT, pH 7.9)). The effect of DMSO itself was tested because it was used in a solvent for DMT inhibitors. […] The mixture was incubated at 37 °C. After various lengths of incubation time (typically 2 h), the methylation reaction was stopped by heat inactivation of the enzymes at 65 °C for 20 min and the reaction mixtures were stored at −20 °C until the future experiments with the smFRET technique.
In the DMT inhibition assays, DMT inhibitors at various concentrations were added together with either M.SssI or DNMT1 when the enzyme was added to the reaction tube (Figure 4A). The reaction and analysis were performed identically except for the addition of inhibitors. […] In these assays, we varied the concentrations of the reagents (proteins or inhibitors) or incubation times. […]

[2] = target: T2, human DNA methyltransferase 1 (DNMT1) (Homo sapiens, UniProt P26358); experiment: smFRET B-Z transition-based DNA methylation (DMT inhibition) assay with DNMT1, HM core substrate; type: biochemical; conditions: 100 U/mL DNMT1, HM core, 160 μM SAM, 50 mM Mg2+, 2-h incubation; read-out: IC50 (degree of inhibition of DNMT1 methylation activity)
T2 construct: purchased NEB (New England Biolabs, Inc., Ipswich, MA, USA)
T2 sequence (P26358 whole entry): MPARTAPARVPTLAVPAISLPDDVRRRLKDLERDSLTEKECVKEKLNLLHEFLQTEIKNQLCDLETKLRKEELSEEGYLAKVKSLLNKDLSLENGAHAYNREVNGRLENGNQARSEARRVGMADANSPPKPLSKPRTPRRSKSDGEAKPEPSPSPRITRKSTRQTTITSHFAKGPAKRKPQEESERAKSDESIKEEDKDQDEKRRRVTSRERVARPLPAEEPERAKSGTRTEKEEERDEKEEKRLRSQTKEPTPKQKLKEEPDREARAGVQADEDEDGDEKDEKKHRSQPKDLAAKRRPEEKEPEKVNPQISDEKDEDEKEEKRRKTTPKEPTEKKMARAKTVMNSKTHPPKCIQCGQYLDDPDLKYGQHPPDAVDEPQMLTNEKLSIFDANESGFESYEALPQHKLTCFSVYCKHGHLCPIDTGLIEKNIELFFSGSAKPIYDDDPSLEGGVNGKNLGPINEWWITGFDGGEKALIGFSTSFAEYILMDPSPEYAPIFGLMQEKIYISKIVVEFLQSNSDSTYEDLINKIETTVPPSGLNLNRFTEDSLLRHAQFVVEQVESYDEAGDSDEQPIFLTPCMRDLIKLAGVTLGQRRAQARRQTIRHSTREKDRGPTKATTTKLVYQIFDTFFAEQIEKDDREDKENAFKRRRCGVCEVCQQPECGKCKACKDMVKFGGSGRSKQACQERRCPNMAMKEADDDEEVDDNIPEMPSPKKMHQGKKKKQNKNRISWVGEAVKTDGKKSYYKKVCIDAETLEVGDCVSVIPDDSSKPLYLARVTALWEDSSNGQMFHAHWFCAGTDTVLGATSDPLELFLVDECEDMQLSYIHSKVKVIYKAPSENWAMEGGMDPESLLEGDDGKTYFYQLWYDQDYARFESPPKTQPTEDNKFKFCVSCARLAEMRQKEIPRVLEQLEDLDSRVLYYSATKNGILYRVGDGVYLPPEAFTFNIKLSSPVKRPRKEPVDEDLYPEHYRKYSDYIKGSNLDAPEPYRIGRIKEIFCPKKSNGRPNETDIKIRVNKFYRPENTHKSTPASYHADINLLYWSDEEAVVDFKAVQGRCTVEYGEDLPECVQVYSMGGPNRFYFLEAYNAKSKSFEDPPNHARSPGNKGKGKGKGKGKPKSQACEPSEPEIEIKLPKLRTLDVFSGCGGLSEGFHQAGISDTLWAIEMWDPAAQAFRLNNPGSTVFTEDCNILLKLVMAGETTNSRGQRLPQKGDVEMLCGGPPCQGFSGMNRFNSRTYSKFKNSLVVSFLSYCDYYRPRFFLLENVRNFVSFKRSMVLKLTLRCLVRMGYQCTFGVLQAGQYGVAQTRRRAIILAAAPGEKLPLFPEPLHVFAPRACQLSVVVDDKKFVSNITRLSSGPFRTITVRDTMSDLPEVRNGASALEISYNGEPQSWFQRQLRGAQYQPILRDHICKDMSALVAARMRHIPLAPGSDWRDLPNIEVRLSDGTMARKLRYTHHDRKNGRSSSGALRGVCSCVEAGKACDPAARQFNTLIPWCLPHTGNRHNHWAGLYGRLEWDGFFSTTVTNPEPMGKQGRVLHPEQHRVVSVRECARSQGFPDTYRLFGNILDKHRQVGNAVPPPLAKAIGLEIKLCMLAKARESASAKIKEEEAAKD
Description: as §1
as §2, with “technique. […]” for “technique.”

IC50 ([1]; 80 U/mL M.SssI, UM core, 160 μM SAM, 50 mM Mg2+, 2-h incubation, read-out: IC50 (degree of inhibition of M.SssI methylation activity)) [µM]	IC50 ([1]; [SAM] = 10 μM, M.SssI, Figure S8, read-out: IC50 (degree of inhibition of M.SssI methylation activity) with low [SAM]) [µM]	IC50 [2] [µM]	SMILES	Effect of [DMSO] on DNA methylation activity of M.SssI ([1]; [DMSO] up to 5 %, [M.SssI] = 80 U/ml, 50 mM Mg2+, Figure S1)	IC50 ([1]; IC50 (degree of inhibition of M.SssI methylation activity), 80 U/mL M.SssI, UM core, 160 μM SAM, 50 mM Mg2+, 2-h incubation) [µM]
			C[S+](C)[O-] [DMSO]	remains unchanged; also recorded: negligible effect	
~80	< 5	~100	O=C(O[C@@H]1Cc2c(O)cc(O)cc2O[C@@H]1c1cc(O)c(O)c(O)c1)c1cc(O)c(O)c(O)c1 [EGCG, epigallocatechin gallate]		
		~1.3	COc1cc(/C=C/C(=O)CC(=O)/C=C/c2ccc(O)c(OC)c2)ccc1O [curcumin]		

SMILES	IC50 ([1]; 80 U/mL M.SssI, UM core, 160 μM SAM, 50 mM Mg2+, 2-h incubation, read-out: IC50 (degree of inhibition of M.SssI methylation activity)) [µM]	IC50 ([1]; [SAM] = 10 μM, M.SssI, Figure S8, read-out: IC50 (degree of inhibition of M.SssI methylation activity) with low [SAM]) [µM]	IC50 [2] [µM]	Effect of [DMSO] on DNA methylation activity of M.SssI ([1]; [DMSO] up to 5 %, [M.SssI] = 80 U/ml, 50 mM Mg2+, Figure S1)	IC50 ([1]; IC50 (degree of inhibition of M.SssI methylation activity), 80 U/mL M.SssI, UM core, 160 μM SAM, 50 mM Mg2+, 2-h incubation) [µM]
O=c1c(-c2ccc(O)cc2)coc2cc(O)cc(O)c12 [genistein]			~400		~600
